From US20080199413A1, “Novel Use of Organic Compounds” (priority 2005, published 2008)

Tested on: human dermal fibroblasts
Experiment: UV-A radiation-induced mtDNA common deletion in human dermal fibroblasts (nested PCR)
Format: cell-based
Settings: for Protection of fibroblasts against the UV-A radiation-induced generation of the common deletion (in words): overall finding of 3 experiments; for Prevalence of mtDNA deletion relative to untreated cells: representative experiment
Description: Sunlight (Systems Dr. […]) irradiation device. […] The cells were then harvested by trypsinisation. […] Dermatol. […] (7293-7316); [NT] (13928-13905); [NT] (7901-7920); [NT] (13650-13631); [NT] (219-238); C2, [NT]

[1] = UV-A radiation + 0.25 μM carotenoid, after 1 week
[2] = UV-A radiation + 0.5 μM carotenoid, after 1 week
[3] = UV-A radiation + 1.0 μM carotenoid, after 1 week
[4] = UV-A radiation + 2.0 μM carotenoid, after 1 week
[5] = UV-A radiation + 3.0 μM carotenoid, after 1 week
[6] = all doses tested (0.25-3 μM), after 1 week

Row | SMILES | Protection of fibroblasts against the UV-A radiation-induced generation of the common deletion (in words) | Prevalence of mtDNA deletion relative to untreated cells [1] | Prevalence of mtDNA deletion relative to untreated cells [2] | Prevalence of mtDNA deletion relative to untreated cells [3] | Prevalence of mtDNA deletion relative to untreated cells [4] | Prevalence of mtDNA deletion relative to untreated cells [5] | Effect on UV-A radiation-induced formation of the common deletion (in words) [6] | Effect on UV-A radiation-induced formation of the common deletion (in words) (at 0.5, 1 μM and 2 μM, after 1 week) | Prevalence of mtDNA deletion relative to untreated cells (UV-A radiation + 0.1 μM carotenoid, after 2 weeks) | Prevalence of mtDNA deletion relative to untreated cells (UV-A radiation + 0.25 μM carotenoid, after 2 weeks) | Prevalence of mtDNA deletion relative to untreated cells (UV-A radiation + 0.5 μM carotenoid, after 2 weeks) | Prevalence of mtDNA deletion relative to untreated cells (UV-A radiation + 1.0 μM carotenoid, after 2 weeks) | Prevalence of mtDNA deletion relative to untreated cells (UV-A radiation + 2.0 μM carotenoid, after 2 weeks) | Prevalence of mtDNA deletion relative to untreated cells (UV-A radiation + 3.0 μM carotenoid, after 2 weeks) | Effect on UV-A radiation-induced induction of the common deletion (in words) (all concentrations tested, after 2 weeks)
1 | CC1=C(/C=C/C(C)=C/C=C/C(C)=C/C=C/C=C(C)/C=C/C=C(C)/C=C/C2=C(C)C[C@@H](O)CC2(C)C)C(C)(C)C[C@H](O)C1 [Zeaxanthin, zeaxanthin, reference compound] | no effect | – | – | – | – | – | – | – | – | – | – | – | – | – | –
2 | CC1=C[C@H](O)CC(C)(C)[C@H]1/C=C/C(C)=C/C=C/C(C)=C/C=C/C=C(C)/C=C/C=C(C)/C=C/C1=C(C)C[C@@H](O)CC1(C)C [lutein] | found to protect | 0.98 | 0.27 | 0.71 | 0.37 | 0.59 | completely prevented | – | – | – | – | – | – | – | –
3 | CC(C)=CCC/C(C)=C/C=C/C(C)=C/C=C/C(C)=C/C=C/C=C(C)/C=C/C=C(C)/C=C/C=C(\C)CCC=C(C)C [lycopene] | consistently found to protect | 2.90 | 1.22 | 1.53 | 1.53 | 2.52 | inhibits | Complete protection | – | – | – | – | – | – | –
4 | CC1=C(/C=C/C(C)=C/C=C/C(C)=C/C=C/C=C(C)/C=C/C=C(C)/C=C/C2=C(C)C[C@@H](O)CC2(C)C)C(C)(C)CCC1 [β-cryptoxanthin] | – | – | – | – | – | – | – | – | 0.80 | 0.64 | 0.25 | 0.62 | 0.25 | 1.03 | abrogated
